In general, melting point refers to the temperature, or range, at which the solid turns liquid. In the case of `CC(C(=O)CCc1ccc(OC(F)(F)F)cc1)n1cncn1` (stereo not given), the melting point was determined as 58 °C. With `CC(=O)c1cn(Cc2ccccc2)c(=O)n(Cc2ccc(F)cc2)c1=O`, the melting point lay in the range of 106 to 108 °C. `CCOc1ccc(OCc2ccc(OCc3nc(-c4ccccc4)oc3C)cc2)cc1CC(=O)OC` came in with a melting point of 82 to 83 °C. In the case of `CNC(=O)c1c(I)c(NC(=O)COC)c(I)c(C(=O)NC(CO)C(=O)O)c1I` (racemic), the melting point fell in the range of 247 to 248 °C. `Cn1nc(S(N)(=O)=O)c2c(F)cccc21` returned a melting point of 221 to 223 °C. For `O=C(O)C(F)Oc1ccc(Cl)cc1Cl` (stereo not given), the melting point was 89 to 91 °C.

In the case of `Cc1cc(C(=O)C(C#N)C(=O)Nc2ccc(F)cc2)c(C)n1C` (stereo not given), the melting point lay in the range of 171 to 172 °C. In turn, `CC(O)Cc1c2ccccc2cc2ccccc12` (stereo not given) registered a melting point of 105 to 107 °C. With `CCOC(=O)NN(C(=O)NC)S(=O)(=O)c1ccccc1` the figure was 138 to 142 °C; with `CC(C)C(NC(=O)C(Cc1ccccc1)NC(=O)c1ccc(NS(=O)(=O)c2ccc(C(C)(C)C)cc2)cc1)C(=O)Nc1n[nH]c(=S)s1` (stereo not given), 140 to 144 °C; with `COC(=O)C=C1Oc2ccccc2Oc2ccccc21`, 81 to 83 °C.

`CCCCCCCCCCCCCCCCC1=C(c2cn(C)c3ccccc23)C(=O)NC1=O`: the melting point lay within 112 to 114 °C. In turn, `CCc1cc(Cl)cc2c1NC(C)NS2(=O)=O` (stereo not given) came in with a melting point of 181 to 183 °C. `CC(C)CC(NC(=O)Cc1ccc(NC(=O)Nc2c(Cl)cccc2Cl)cc1)c1ncc(CCC(=O)O)s1` (stereo not given) displayed a melting point of 148 to 150 °C.

The compound `CCCOc1ccccc1-c1nc2nc(NCC(C)OC)ncc2c(=O)[nH]1` (stereo not given) returned a melting point of 193 to 194 °C. With `O=C(O)C1CCCc2[nH]c3ccccc3c21` (stereo not given) the figure was 163 to 165 °C; with `CC(=O)N1C(=CC(C#N)=C2OC(CO)CN2C)C(=O)c2ccccc21` (stereo not given), 218 to 220 °C. The compound `CCCCCCCCCCCCCCC(=O)c1ccc2cc(O)c(O)cc2c1` yielded a melting point of 133 to 134 °C.

Consider `CCS(=O)(=O)Cc1ccc(Oc2ccc(NC(C)=O)cc2)cc1`, for which the melting point is 186 °C.

Compound `COc1cc2c(cc1OC)CN(CCCc1ccc(NC(=O)c3cc(OC)c4ccccc4n3)cc1)CC2` showed a melting point of 123 to 125 °C. For `Cc1nc(-c2ccccc2)nc(-c2ccccn2)n1`, the melting point came out at 97 °C. Compound `COCCOc1nc(N)nc(-c2ccccc2)c1-c1ccc(=O)n(C(C)C)n1` showed a melting point of 128 to 130 °C. In turn, `CCCCN(CCCC)C(=O)CCCC1(C(=O)NCCC)c2ccccc2-c2ccccc21` yielded a melting point of 109 to 111 °C. `CCCCCN(CCC12CC3CC(CC(C3)C1)C2)C(=O)NCCCc1cccnc1` had a melting point of 99.9 to 105 °C. The compound `CS(=O)(=O)Nc1cccc(NC(=O)C(=O)N2CCC(Cc3ccccc3)CC2)c1` had a melting point of 128 to 130 °C. In turn, `COc1ccc(C(=O)C2CCC(C)(C(=O)O)C2(C)C)c(OC)c1` (stereo not given) showed a melting point of 145 °C. `COc1ccc(CN2CCC(C(=O)O)(S(=O)(=O)c3ccc(OC)cc3)CC2)cc1` came in with a melting point of 175 °C. As to `CNC(=O)Nc1c(C)nn(-c2cc(OC(C)C)c(Cl)cc2F)c1C`, the melting point fell in the range of 184 to 185 °C.

On to `CCC(=O)Oc1cc(OC)cc(OC)c1C(=O)C=Cc1ccccc1`, for which the melting point was 116 to 117 °C. `COc1ccc(-n2nc(Sc3ccc([N+](=O)[O-])cc3)c(C)c(C#N)c2=O)cc1` showed a melting point of 258 to 260 °C. In the case of `COc1ccc(CNC(=O)c2ccccc2N)cc1`, the melting point is 104 to 105 °C.

The compound `CS(=O)c1ccc(-c2nn3c(c2-c2ccncc2)NCCC3)cc1` (stereo not given) came in with a melting point of 201 to 202 °C. In the case of `COc1cc(-c2nc(NC(C)(C)C)c3c(C)c(C#N)sc3n2)cc(OC)c1OC`, the melting point lay within 195 to 197 °C. Then `CN1CCN(c2cc3ccccc3cn2)CC1`, with 93 to 94 °C. With `CNC(=O)c1c(NC(=O)c2cc(C(F)(F)F)nn2-c2ncccc2Cl)ccc2cccnc12` the figure was 219 to 220 °C.

The values above are taken from a melting point compilation (Tetko et al.; mined from patent text by program, amines drawn as free bases though some values may be those of a salt).
